Target: T1, DNA topoisomerase 1 (Topo1) (Spodoptera exigua, UniProt G1FWE7)
T1 construct: Topo70, N-terminally truncated, residues 337–930, GST fusion expressed in E. coli BL21 (DE3)
T1 sequence (G1FWE7 337-930): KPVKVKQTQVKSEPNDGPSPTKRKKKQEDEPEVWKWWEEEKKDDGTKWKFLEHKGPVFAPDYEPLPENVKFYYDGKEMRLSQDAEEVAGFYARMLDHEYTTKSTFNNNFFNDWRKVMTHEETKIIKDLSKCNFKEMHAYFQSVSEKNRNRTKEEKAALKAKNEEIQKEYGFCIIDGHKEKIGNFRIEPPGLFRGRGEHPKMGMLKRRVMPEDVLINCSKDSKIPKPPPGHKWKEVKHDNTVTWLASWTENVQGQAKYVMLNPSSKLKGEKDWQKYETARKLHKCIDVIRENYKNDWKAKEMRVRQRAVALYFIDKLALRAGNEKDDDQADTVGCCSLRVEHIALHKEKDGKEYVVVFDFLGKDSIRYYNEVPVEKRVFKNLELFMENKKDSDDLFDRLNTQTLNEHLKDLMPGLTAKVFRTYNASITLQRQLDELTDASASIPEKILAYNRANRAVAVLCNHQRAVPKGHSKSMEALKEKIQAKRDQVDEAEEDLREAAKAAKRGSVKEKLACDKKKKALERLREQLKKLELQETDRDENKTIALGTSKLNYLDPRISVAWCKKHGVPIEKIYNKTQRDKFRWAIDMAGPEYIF
Assay: pBR322 DNA relaxation assay with purified recombinant Topo1, agarose gel densitometry
Assay type: biochemical

| SMILES | EC50 |
| --- | --- |
| CC[C@@]1(O)C(=O)OCc2c1cc1n(c2=O)Cc2cc3ccccc3nc2-1 [CPT, Camptothecin] | 4.42 µM |
| CC[C@@]1(O)C(=O)OCc2c1cc1n(c2=O)Cc2cc3cc(O)ccc3nc2-1 [HCPT, hydroxy-camptothecin] | 15.2 µM |

Reference: PMC3579855, “Characterization of DNA Topoisomerase-1 in Spodoptera exigua for Toxicity Evaluation of Camptothecin and Hydoxy-Camptothecin” (PLoS ONE, 2013)
